Experimental data taken from article PMC4428838, “Optimization of Invasion-Specific Effects of Betulin Derivatives on Prostate Cancer Cells through Lead Development” (PLoS ONE, 2015).

Key:
Type in all cases: cell-based
[1] = tested on: PC-3, LNCaP, LAPC-4, Ep156T; assay: Primary and secondary 3D screens combined across the cell line panel; details: cell lines other than PC-3, 3D, 300 nM or lower (except compound 15)
Description: (§1) Fig 5 Secondary 3D screens. Experimental betulin derivatives and control compounds were tested across a panel of prostate cancer lines (LNCaP, LAPC-4) and non-transformed, prostate epithelial cells (EP156T) in 3D culture. A) The dendrogram is based on three main morphological parameters and combines all data from primary and secondary 3D screens. Effective compound treatments are indicated in red and yellow, yellow being the most invasion-specific. B) Boxplots showing the impact of selected compounds on spheroid size (Area). Data scaling: as described in Fig 4 C) Effects of all betulin derivatives and control compounds on cell death (number of dead cells).
In order to assist functional categorization of our betulin derivatives, we combined all data into a single dendrogram, shown in Fig 5A. In addition, multiparametric representation of all experimental data as a single heatmap is highly informative (S5 Fig) and a potent way to illustrate the effects of compounds on growth, structural complexity and cell death across multiple cell lines. […] However, at lower concentrations, these compounds may act as potent and specific inhibitors of cell invasion and motility.
Supplementary file pone.0126111.s005.eps: S5 Fig Primary and secondary screens. […] The main read-outs (Area = Size, Complexity = Invasiveness, Red = Cell death) are shown in their own columns. Data scaling: DMSO control has been given a value 0 whereas paclitaxel control is valued -100 or 100 depending on the read-out. Color key is located in the upper right corner. (EPS) Click here for additional data file.
Supplementary file pone.0126111.s006.tif: S6 Fig Confocal images from primary and secondary betulin screens. Viable cells have been stained with calcein AM (green) and dead cells with ethidium homodimer-2 (red) (5× objective, maximum intensity projections, scale bar = 100 μm). (TIF) Click here for additional data file.

LAPC-4 = assay: Secondary 3D screen (spheroid size, complexity, cell death); details: yellow and red clusters
From the text: Next, the 25 selected betulin derivatives depicted in Figs 1–3 including control compounds were again thoroughly tested across the same panel of prostate-derived cell lines already used in the preliminary, 2D high-throughput screen. The resulting dendrograms were either generated separately for each cell line (S4 Fig), combined into a single dendrogram (Fig 5A), or shown as reduced organoid sizes (area; Fig 5B).
as §1, with “Effective compound treatments are indicated in red and yellow, yellow being the most invasion-specific.” left out
All 3D cultures were done in growth factor-free Matrigel Basement-membrane Matrix (Corning Inc., New York, NY, USA) using 96-well Angiogenesis μ-plates (ibidi GmbH, Munich, Germany) as described before.[38] “Sandwich” assays in short: bottom wells of cooled Angiogenesis plates were filled with 10 μL 4 mg/mL Matrigel, centrifuged for 20 min 200 g and incubated at 37°C temperature for approximately 30–60 min or until the ECM had polymerized. 1,000–1,500 cells were mixed in 2 mg/mL ECM-medium, and 20 μL of cell suspension was added in each well. The plates were centrifuged for 10 min at 100 g, or until the cells had settled on top of the lower ECM. Finally, the outer wells and side reservoirs were filled with water for humidification, and the culture plates placed into the incubator for 3–4 h or overnight. The following day, 60 μL of cell culture medium were added; refreshed every third day by carefully aspirating the medium. This “sandwich” setting allows almost unifocal alignment of cells and 3D structures in a single optical plane, thus reducing the time required for confocal stack imaging.
All control compounds were purchased from Selleck (Munich, Germany), except for staurosporine (Sigma-Aldrich, St. Louis, MO, USA) and Y-27632 (Tocris, Bristol, UK) and dissolved in dimethyl sulfoxide (DMSO) as a vehicle at 10 mM. In the primary and secondary 3D screens, experimental and control compound exposures were performed in triplicates. Four concentrations for each compound were applied (0.03, 0.1, 0.3 and 1 μM). Compound treatments were initiated four days after cell embedding, and continued for six days after which spheroids were stained and imaged.
Supplementary file pone.0126111.s004.eps: S4 Fig Secondary screens. Dendrograms for A) LNCaP, B) LAPC-4, and C) Ep156T betulin screens in 3D culture have been constructed using three main read-outs: spheroid size, spheroid complexity, and cell death. […] (EPS) Click here for additional data file.

[2] = tested on: actin cytoskeleton of PC-3, LNCaP and Ep156T spheroids; assay: F-actin cytoskeleton (phalloidin staining) in 3D spheroids; details: after 48 hours of exposure; seen in Ep156T acini and PC-3 spheroids, not LNCaP
From the text: […] […] For phenotypic comparisons, we tested a panel of reference compounds targeting Akt, Rac, ROCK, Src, and other pathways, broadly linked to the actin cytoskeleton.
Fig 8 3D morphologies of prostate spheroids, exposed to selected betulin derivatives and captured with a confocal microscope. Actin cytoskeleton (filamentous or F-actin) is stained green (phalloidin), nuclei with a red dye (confocal microscope images, 40× objective, scale bar shown for each panel on the right lower corner).

PC3 cells = assay: Cell morphology and actin cytoskeleton in 2D monolayer culture; details: PC3, 2D, 72h
Description: As a control, we also tested morphologies treated with the same panel of anti-invasive compounds 4, 5, 6, 16 and 20 as well as betulin (1) on PC3 cells grown in 2D monolayer cultures (S9 Fig).
Supplementary file pone.0126111.s009.tif: S9 Fig Morphologies of PC-3, LNCaP and Ep156T cells in 2D monolayer culture, exposed 72h to selected betulin derivatives. Actin cytoskeleton (filamentous or F- actin) is stained green (LifeAct), nuclei with a red dye (confocal microscope images, 40× objective, scale bar shown for each panel on the right lower corner). (TIF) Click here for additional data file.

PC-3 = assay: Wound healing assay in 2D monolayer culture (IncuCyte); details: for wound healing 50% cut-off concentration: 2D monolayer, printed in Fig 4D; for reduction of wound closure: at 300 nM, after 64 hours, 2D
Description: Cells were cultured on ImageLock plates (Essen Bioscience, Ann Arbor, MI, USA) until fully confluent and scratched with a WoundMaker instrument (Essen Bioscience). All detached cells were removed by aspiration and medium supplemented with experimental compounds was added. Wound closure was monitored and quantified with the IncuCyte live-cell imager (Essen Bioscience).
A) Graph showing the transition of PC-3 spheroids from symmetrical acini to irregular invasive structures over 6 days, as measured by general symmetry (roundness %). […] B) Conventional wound healing assay performed in monolayer culture over a period of 64 hours. Wound closure is measured as relative wound density i.e. percentage of original wound area reclaimed by migrating cells. […] (EPS) Click here for additional data file.

| Structure (SMILES) | effects on the other cell lines at anti-invasive concentrations [1] | efficacy in 3D LAPC-4 culture (dendrogram clusters) (LAPC-4) | organization of actin cytoskeleton in 3D spheroids [2] | morphology and actin cytoskeleton of cells in 2D monolayer (PC3 cells) | wound healing 50% cut-off concentration (PC-3) | reduction of wound closure (PC-3) | concentration required in 2D culture for effects comparable to 3D (PC-3; 2D wound healing) |
| --- | --- | --- | --- | --- | --- | --- | --- |
| C=C(C)[C@@H]1CC[C@]2(C(=O)O)CC[C@]3(C)C(CCC4[C@@]5(C)Cc6c[nH]nc6C(C)(C)C5CC[C@]43C)C12 (stereo partly drawn) [Compound 6] | no noticeable effects on the other cell lines | most active | effectively disrupted the organization of actin cytoskeleton | No morphologies and visible effects on the actin cytoskeleton |  |  |  |
| C=C(C)[C@@H]1CC[C@]2(C(=O)O)CC[C@]3(C)C(CCC4[C@@]5(C)Cc6ncccc6C(C)(C)C5CC[C@]43C)C12 (stereo partly drawn) [Compound 20] | no noticeable effects on the other cell lines | most active | effectively disrupted the organization of actin cytoskeleton | No morphologies and visible effects on the actin cytoskeleton | ca. 0.3 μM | 50% |  |
| CC(C)[C@@H]1CC[C@]2(C(=O)O)CC[C@]3(C)C(CCC4[C@@]5(C)Cc6cnoc6C(C)(C)C5CC[C@]43C)C12 (stereo partly drawn) [Compound 4] | no noticeable effects on the other cell lines | most active |  | No morphologies and visible effects on the actin cytoskeleton | ca. 0.3 μM | 50% |  |
| CC(=O)O[C@H]1C(=O)[C@@]2(C)[C@H]([C@H](OC(=O)c3ccccc3)[C@]3(O)C[C@H](OC(=O)[C@H](O)[C@@H](NC(=O)c4ccccc4)c4ccccc4)C(C)=C1C3(C)C)[C@]1(OC(C)=O)CO[C@@H]1C[C@@H]2O [Paclitaxel, paclitaxel, reference compound] |  | efficacy of all positive controls |  |  |  |  |  |
| C=C(C)[C@@H]1CC[C@]2(C(=O)O)CC[C@]3(C)C(CCC4[C@@]5(C)Cc6cnoc6C(C)(C)C5CC[C@]43C)C12 (stereo partly drawn) [Compound 5] |  |  | effectively disrupted the organization of actin cytoskeleton | No morphologies and visible effects on the actin cytoskeleton |  |  | higher than 1 μM |
| C=C(C)[C@@H]1CC[C@]2(C(=O)O)CC[C@]3(C)C(CCC4[C@@]5(C)Cc6cccnc6C(C)(C)C5CC[C@]43C)C12 (stereo partly drawn) [Compound 19] | no noticeable effects on the other cell lines | most active |  |  |  |  |  |
